Measured values as given in patent US20240248101A1 (The United States of America, as represented by the …, priority 2021, published 2024).
Values joined by “and” are separate entries in the source; they are usually repeats but may differ in a detail not shown here. Identical values can stand only once.

Experiments:
[1] = Vitamin C renal leak study in diabetic cohort, nondiabetic controls and healthy subgroup (matched fasting plasma and 1 h urine); assay type: in vivo, human; conditions: for Plasma Vitamin C Concentration (mean): fasting
Description: Vitamin C in plasma and urine was measured using coulometric electrochemical detection with high performance liquid chromatography.
Study design: This was a non-randomized cross-sectional cohort outpatient study aimed at investigating the prevalence and clinical characteristics of vitamin C renal leak in a cohort of individuals with diabetes and non-diabetic controls. The protocol was approved by the Institutional Review Boards of NIDDK, NIH.
Participants and Recruitment: The study included a cohort of diabetic and non-diabetic individuals aged 18-65, without known acute or chronic medical conditions other than complications of diabetes mellitus or metabolic syndrome. Exclusion criteria included presence of an acute or chronic illness, alcohol abuse or tobacco use and pregnancy.
Subjects were also instructed to avoid food or drinks (other than water and medications) after midnight, prior to study sampling day. On morning of study sampling, subjects were admitted to the NIH CRC's metabolic unit as outpatients. They were instructed to empty their bladder. […] Subjects were subsequently provided with a meal and discharged home.
Study Groups and Comparators for Analyses: Three groups of participants who met the inclusion and exclusion criteria were used for data analyses: diabetic cohort, nondiabetic control group and healthy subgroup. The diabetic cohort was comprised of men and women with type 1 or type 2 diabetes. The nondiabetic control group was made up of individuals without diabetes and were not taking any chronic medications. To investigate unknown factors associated with renal leak, related and unrelated to diabetes, the study exclusion criteria was non-restrictive to recruit a broad sampling of the population. Thus, the nondiabetic control group included asymptomatic subjects with abnormal laboratory values which not determined to be clinically significant during the screening evaluation. However, inclusion of individuals with abnormal laboratory values in the non-diabetic control group could confound study findings. To address this concern, a post-hoc healthy subgroup of the nondiabetic control group without abnormal laboratory findings was identified. Primary comparative analysis was between the diabetic group vs nondiabetic control group. The diabetic group was secondarily compared with the healthy subgroup to assess for discordant findings.
This binary criterion is a qualitative measure indicating the presence or absence of a renal leak in a subject. The prevalence of renal leak was calculated as the proportion of leakers in each population cohort.
FeVC is a quantitative measure that describes the degree and magnitude of a renal leak. The formula for calculating FeVC is shown below: […]
Sample collection and vitamin C assay: Urine and plasma vitamin C were analyzed by HPLC with coulometric electrochemical detection. Other blood and urine chemistry measurements were performed, using standard laboratory methods, by the department of laboratory medicine Clinical Laboratory Improvement Amendments (CLIA) identification number: 21D0665373, Clinical Research Center, National Institutes of Health.

[2] = Vitamin C depletion-repletion pharmacokinetic study: renal threshold and minimal elimination threshold (PBPK and PCF modelling); assay type: in vivo, human; conditions: for vitamin C renal threshold, Population Curve Fitting (PCF): population estimate
Description: Renal threshold was estimated using physiology-based pharmacokinetics modeling. […] Mice knockout models were used for proof-of-concept studies. Vitamin C was measured using coulometric electrochemical detection with high performance liquid chromatography.
Pharmacokinetics components of depletion-repletion study design have been described previously (see supplementary methods). The protocol was approved by the Institutional Review Board, National Institutes of Diabetes and Digestive and Kidney diseases (NIDDK), National Institutes of Health (NIH).
Participants, Interventions: Healthy men and women aged 18 to 35 years without any acute or chronic medical conditions. Details on eligibility and study interventions are described in supplementary methods.
Full details regarding studying outcomes and analyses are provided in supplementary methods. […] Each subject had 5-7 oral and intravenous pharmacokinetic studies over a 13-fold or greater dose range. Data from the NIH depletion study in men and women were used to estimate the vitamin C renal threshold by two different methods: physiology-based pharmacokinetics modeling (PBPK), and population curve fitting with empirical functions (PCF). […] Based on data from healthy men, this model facilitated description of pharmacokinetics-time profiles of vitamin C in plasma, urine, and tissues simultaneously. Goodness of fit analyses support the use of this model to data from healthy women. For population curve fitting (PCF), plasma and urine values were analyzed using nonlinear mixed-effect modeling. PCF fits empirical functions to data from all subjects of each sex to estimate the renal threshold for that population of men and women. Using PBPK analyses, minimal elimination threshold (MET) was defined as that plasma concentration 2 standard deviations below the mean renal threshold for men and for women based on guidelines for estimating dietary reference intakes. […] (see supplementary methods).
Because urine samples collected at variable intervals were not synchronized with plasma samples, the time at which vitamin C first appears in the urine or when vitamin C urinary elimination became zero could not be determined from raw data alone. […] Using the data from the NIH depletion repletion study, vitamin C renal threshold was estimated by two different methods: Physiology-Based Pharmacokinetics model (PBPK) and population curve fitting (PCF).
Goodness of fit analysis support the use of the pharmacokinetics model to data collected from 15 normal women. […] When the amount of filtered vitamin C exceeds renal tubular reabsorptive capacity, vitamin C appears in the urine. The point at which renal threshold is reached (when filtration and reabsorption are in equilibrium) can be represented as
The Cplasma that fulfill the above equation is the plasma concentration threshold (renal threshold). At which time, the rate of vitamin C dispense into the tubule equals zero. The equation 2 can be rearranged as
Different non-parametric empirical functions were explored to best describe the combined urine data versus plasma vitamin C value of all subjects. After the structure function (model) was selected using goodness-of-fit assessments, plasma and urine data analyses were finalized using Nonlinear Mixed-Effect (MLME) modeling for population fit with S-Plus for Windows (version 8, Insightful Corp. Seattle, WA) to estimate the parameters account for inter-subject variabilities.
A Michealis-Menten equation (equation 4) was selected and fitted to data to estimate the parameters Vm and KM (maximum rate and Michaelis constant, respectively).
Initial estimate of Vm and KM were obtained by inspecting data plots. Goodness-of-fit was checked by visually inspecting the distribution of Standardized Residuals. If the goodness of fit was not acceptable, the initial parameters (Vm and KM) were changed and the resulting plot inspected again for distribution of residuals. […]

[3] = Vitamin C renal leak study in men with Fabry disease and healthy male controls (matched fasting plasma and 1 h urine); assay type: in vivo, human; conditions: for median fractional excretion of vitamin C (FeVC): all subjects
Text: Study design: This was a non-randomized cross-sectional cohort study aimed at investigating the prevalence and clinical characteristics of vitamin C renal leak in men with Fabry disease and healthy male controls. The protocols were approved by the Institutional Review Boards of NINDS and NIDDK, NIH.
Participants: Men with Fabry disease who were actively participating in NIH protocols evaluating the open label use of enzyme replacement therapy (ERT) in Fabry disease (95-N-0121, 00-N-0185 and 02-N-0220), ClinicalTrials.gov Identifiers: NCT00001491 and NCT00068107) were recruited. The male predominance in Fabry disease is based on the X-linked inheritance pattern. Accordingly, healthy men aged 18-58 were recruited on a rolling basis as controls for the Fabry cohort, under NIH protocol 04-DK-0021 (arm 3). Exclusion criteria included acute or chronic illness, alcohol abuse or tobacco use.
Matched urine and plasma vitamin C measurements: Following an overnight fast, on the morning of study, subjects were instructed to empty their bladder. […] Following the initial spot urine collection, subjects were hospitalized for another 24 hours. They consumed a hospital diet free of supplements or foods items with no or low vitamin C content. On morning of day 2, collection of all voided urine for 24 hours (termed 24 h urine) was obtained and subjects were discharged home.
Primary endpoint was the prevalence of vitamin C renal leak in the Fabry's cohort compared with healthy controls. Renal leak status (leak vs no leak) was determined using criteria described in depletion-repletion studies above. […] To address this limitation, renal leak was also expressed as fractional excretion of vitamin C (FeVC) defined as follows: […]
Following an overnight fast, on the morning of study, subjects were instructed to empty their bladder. […] Subjects could watch TV, read, take naps, or rest in any other way they choose. […]

[4] = Plasma and urine vitamin C in gulo-/- mice given vitamin C in drinking water; assay type: in vivo, mouse; conditions: gulo-/- mice of both sexes, vitamin C 0 to 5000 mg/L in drinking water
Description: Values represent means+/−SDs. All mice were maintained at each dose for one week before blood and urine sampling.
Animal experiments were approved by the Animal Care and Use Committee NIDDK, NIH, and were conducted in accordance with NIH guidelines. Mice were 10-14-week-old males and females with free access to food and water and were maintained on a regular chow diet (NIH-07) without detectable ascorbate (detection limit 10 nM). Mice type were gulo^−/− and SVCT1^−/−. […] To maintain the mice, vitamin C was provided via drinking water, which was changed daily.
Plasma and RBCs were from mouse whole blood as described. Urine was collected at the same time as the blood by gentle abdominal pressure.
Blood and urine samples were collected on ice and processed promptly. All samples were stored at −80 C and assayed together by HPLC as previously described.

Median FeVC ([1]; Diabetic Cohort, All Subjects): 0.00032 | Median FeVC ([1]; Diabetic Cohort, Plasma Vit C < MET): 0.00015 | Median FeVC ([1]; Diabetic Cohort, Plasma Vit C ≥ MET): 0.0012 and 0.00122 | Plasma Vitamin C Concentration (mean) ([1]; Diabetic Cohort, table part adjusted for sex/gender): 40.9 µM | Plasma Vitamin C Concentration (mean) ([1]; Diabetic Cohort, un-adjusted for sex/gender): 40.9 µM | Median FeVC ([1]; Healthy Subgroup, All Subjects): 0.00046 | Median FeVC ([1]; Healthy Subgroup, Plasma Vit C < MET): 0 | Median FeVC ([1]; Healthy Subgroup, Plasma Vit C ≥ MET): 0.00046 | Plasma Vitamin C Concentration (mean) ([1]; Healthy Subgroup, table part adjusted for sex/gender): 57.1 µM | Plasma Vitamin C Concentration (mean) ([1]; Healthy Subgroup, un-adjusted for sex/gender): 57.1 µM | Median FeVC ([1]; Non-Diabetic Control, All Subjects): 0.00044 | Median FeVC ([1]; Non-Diabetic Control, Plasma Vit C < MET): 0.0000 | Median FeVC ([1]; Non-Diabetic Control, Plasma Vit C ≥ MET): 0.0010 | Plasma Vitamin C Concentration (mean) ([1]; Non-Diabetic Control, table part adjusted for sex/gender): 53.1 µM | Plasma Vitamin C Concentration (mean) ([1]; Non-Diabetic Control, un-adjusted for sex/gender): 53.1 µM | Minimal Elimination Threshold (MET), 2SD below mean renal threshold using PBPK ([2]; healthy men): 38.1 µM | vitamin C renal threshold, PBPK, Mean (SD) ([2]; healthy men, n = 7): 48.5(5.2) μM | vitamin C renal threshold, PBPK, Mean (SD) ([2]; healthy men, n = 7, listed as Vitamin C): 48.5 μM and 48.5 (5.2) μM | vitamin C renal threshold, Population Curve Fitting (PCF) ([2]; healthy men): 48.3 µM and 48.28 µM | vitamin C renal threshold, Population Curve Fitting (PCF) ([2]; healthy men, listed as Vitamin C): 48.3 µM | Minimal Elimination Threshold (MET), 2SD below mean renal threshold using PBPK ([2]; healthy women): 43.2 µM | vitamin C renal threshold, PBPK, Mean (SD) ([2]; healthy women, n = 10): 58.3(7.5) μM | vitamin C renal threshold, PBPK, Mean (SD) ([2]; healthy women, n = 10, listed as Vitamin C): 58.3 μM and 58.3 (7.5) μM | vitamin C renal threshold, Population Curve Fitting (PCF) ([2]; healthy women): 60.4 µM and 60.39 µM | vitamin C renal threshold, Population Curve Fitting (PCF) ([2]; healthy women, listed as Vitamin C): 60.4 µM | mean plasma vitamin C concentration ([3]; Fabry cohort and healthy controls after 3-week low vitamin C diet, order of cohorts not stated): 38.9 µM and 36.5 µM | median fractional excretion of vitamin C (FeVC) ([3]; healthy male controls): 0 | median fractional excretion of vitamin C (FeVC) ([3]; men with Fabry disease): 0.018 | plasma vitamin C concentration below which no vitamin C was found in urine (renal threshold) [4]: 55 µM
Compound: O=C1O[C@H]([C@@H](O)CO)C(O)=C1O [vitamin C]
vitamin C renal threshold, Pharmacokinetic Modeling (PBPK), individual estimates ([2]; healthy men, individual subjects M1-M7, plasma concentration at which vitamin C first appears in urine): 52 μM and 51 μM and 40 μM and 56 μM and 45 μM (2×) and 50 μM | vitamin C renal threshold, Pharmacokinetic Modeling (PBPK), individual estimates ([2]; healthy women, individual subjects W1-W10): 54 μM (3×) and 67 μM and 57 μM and 64 μM and 63 μM and 45 μM and 70 μM and 55 μM
